The source of these data is US20260325533A1, “CDK INHIBITOR COMPOUNDS” (ALEKSIA THERAPEUTICS, INC., priority 2023, published 2026).

Assay type in all cases: biochemical
One assay addresses CDK2/CCNE1 (Homo sapiens, UniProt P24941). In words: CDK2 homogeneous time-resolved fluorescence (HTRF) kinase assay. The conditions noted are these: CDK2/CCNE. The gist of the method: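 IC50 derived from 11-point, half-log dilutions (usually top 10 μM) of compound, 1% DMSO. Kinase (3 nM CDK2/CCNE1) was preincubated with compound 20 min, then phosphorylated 50 nM ULight-4E-BP1 peptide at 1 mM ATP for 60 min, 23 °C. Europium-antibody TR-FRET read after EDTA stop.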
A general note: In TR-FRET formats the signal depends on donor and acceptor labels being close together.

Another assay addresses CDK1/CCNB1 (Homo sapiens, UniProt P06493). The assay can be described thus: CDK1 homogeneous time-resolved fluorescence (HTRF) kinase assay. The conditions noted are these: CDK1/CCNB. The gist of the method: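 CDK1/CCNB1 0.5 nM + cpd, 20 min 23 °C; add 1 mM ATP, 50 nM ULight-4E-BP1 peptide, 60 min 23 °C; stop 10 mM EDTA; 2 nM Eu-Ab, 60 min; HTRF 665 nm. 11-pt half-log, top 10 μM typical; IC50.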

In the next assay the target is CDK4/CCND3 (Homo sapiens, UniProt P11802). In words: CDK4 homogeneous time-resolved fluorescence (HTRF) kinase assay. The conditions noted are these: CDK4/CCND. The method in brief:
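IC50s derive from Lance 665 nm or 665/615 nm signals in 11-point, half-log dose series (top 10 μM, 1% DMSO). The enzyme, 1.5 nM CDK4/CCND3, phosphorylates 50 nM ULight-4E-BP1 peptide with 1 mM ATP over 60 min at 23 °C.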

In another assay the target is CDK6/CCND1 (Homo sapiens, UniProt Q00534). The assay can be described thus: CDK6 homogeneous time-resolved fluorescence (HTRF) kinase assay. The conditions noted are these: CDK6/CCND. The method in brief:
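Assay conditions: HEPES buffer containing 10 mM MgCl2, 1 mM EGTA, 2 mM DTT, 0.01% Tween 20; 1 nM CDK6/CCND1, 50 nM peptide substrate, 1 mM ATP. Detection after 60 min reaction used 2 nM europium antibody with 340 nm excitation. Potency fitted from half-log series, 11 points.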

Where [1] appears, read: x = IC50 <25 nM, read-out: CDK2/CCNE IC50 (<25 nM).
Setting [2] is: x = IC50 25-250 nM, read-out: CDK1/CCNB IC50 (25-250 nM).
Where [3] appears, read: x = IC50 25-250 nM, read-out: CDK4/CCND IC50 (25-250 nM).
Setting [4] is: x = IC50 25-250 nM, read-out: CDK6/CCND IC50 (25-250 nM).
Setting [5] is: x = IC50 >250 nM, read-out: CDK4/CCND IC50 (>250 nM column).
[6] abbreviates: x = IC50 >250 nM, read-out: CDK6/CCND IC50 (>250 nM column).
The mark [7] stands for this setting: x = IC50 >250 nM, read-out: CDK1/CCNB IC50 (>250 nM column).
Setting [8] is: x = IC50 25-250 nM, read-out: CDK2/CCNE IC50 (25-250 nM).
Where [9] appears, read: <25 nM, read-out: CDK2/CCNE IC50 <25 nM.
Where [10] appears, read: 25-250 nM marked x, read-out: CDK1/CCNB IC50 25-250 nM.
The mark [11] stands for this setting: <25 nM, read-out: CDK4/CCND IC50 <25 nM.
Setting [12] is: <25 nM, read-out: CDK6/CCND IC50 <25 nM.
Where [13] appears, read: 25-250 nM marked x, read-out: CDK2/CCNE IC50 25-250 nM.
Where [14] appears, read: >250 nM marked x, read-out: CDK1/CCNB IC50 >250 nM.
[15] abbreviates: 25-250 nM marked x, read-out: CDK4/CCND IC50 25-250 nM.

SMILES strings stand for the structures. pIC50: −log10 of the molar value. Where two headings read alike, the source gives them in different places. A value given as a limit tells only on which side of the number the result lay.

Chain of CDK1/CCNB1 (P06493 whole entry): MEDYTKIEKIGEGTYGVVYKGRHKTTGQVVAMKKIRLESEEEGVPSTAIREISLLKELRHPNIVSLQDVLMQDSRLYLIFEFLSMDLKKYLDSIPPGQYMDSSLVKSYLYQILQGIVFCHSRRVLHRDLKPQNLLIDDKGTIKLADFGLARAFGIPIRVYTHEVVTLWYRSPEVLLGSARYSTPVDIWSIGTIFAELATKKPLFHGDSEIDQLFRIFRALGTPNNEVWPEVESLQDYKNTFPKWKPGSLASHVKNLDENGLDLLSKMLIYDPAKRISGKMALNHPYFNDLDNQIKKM
Chain of CDK1/CCNB1 (P14635 whole entry partner): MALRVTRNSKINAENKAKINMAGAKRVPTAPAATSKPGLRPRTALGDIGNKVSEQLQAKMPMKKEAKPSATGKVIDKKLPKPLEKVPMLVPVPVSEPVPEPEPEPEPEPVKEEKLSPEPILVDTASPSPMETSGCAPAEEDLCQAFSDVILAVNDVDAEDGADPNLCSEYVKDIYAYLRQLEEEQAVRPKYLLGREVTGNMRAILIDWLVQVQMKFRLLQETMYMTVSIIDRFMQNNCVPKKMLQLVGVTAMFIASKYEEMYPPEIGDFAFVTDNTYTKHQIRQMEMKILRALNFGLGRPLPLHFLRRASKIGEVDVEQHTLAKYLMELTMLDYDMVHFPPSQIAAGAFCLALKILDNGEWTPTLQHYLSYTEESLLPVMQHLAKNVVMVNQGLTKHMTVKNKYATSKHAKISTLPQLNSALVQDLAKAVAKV
Chain of CDK4/CCND3 (P11802 whole entry): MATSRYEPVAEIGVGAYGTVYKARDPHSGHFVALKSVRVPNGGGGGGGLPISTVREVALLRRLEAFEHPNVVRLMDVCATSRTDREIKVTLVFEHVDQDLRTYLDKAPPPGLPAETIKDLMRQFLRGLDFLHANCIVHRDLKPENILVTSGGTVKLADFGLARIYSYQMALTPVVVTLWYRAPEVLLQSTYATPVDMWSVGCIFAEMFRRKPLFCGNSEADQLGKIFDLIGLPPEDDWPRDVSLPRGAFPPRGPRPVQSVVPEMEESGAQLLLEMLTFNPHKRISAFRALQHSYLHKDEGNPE
Chain of CDK4/CCND3 (P30281 whole entry partner): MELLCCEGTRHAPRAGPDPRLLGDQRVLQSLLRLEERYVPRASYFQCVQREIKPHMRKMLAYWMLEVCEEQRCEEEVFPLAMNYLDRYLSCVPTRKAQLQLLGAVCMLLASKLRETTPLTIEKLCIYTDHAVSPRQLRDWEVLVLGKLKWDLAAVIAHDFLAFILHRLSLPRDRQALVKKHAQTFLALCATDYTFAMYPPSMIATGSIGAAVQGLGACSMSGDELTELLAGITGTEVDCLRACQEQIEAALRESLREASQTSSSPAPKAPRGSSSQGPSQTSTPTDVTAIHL
Chain of CDK6/CCND1 (Q00534 whole entry): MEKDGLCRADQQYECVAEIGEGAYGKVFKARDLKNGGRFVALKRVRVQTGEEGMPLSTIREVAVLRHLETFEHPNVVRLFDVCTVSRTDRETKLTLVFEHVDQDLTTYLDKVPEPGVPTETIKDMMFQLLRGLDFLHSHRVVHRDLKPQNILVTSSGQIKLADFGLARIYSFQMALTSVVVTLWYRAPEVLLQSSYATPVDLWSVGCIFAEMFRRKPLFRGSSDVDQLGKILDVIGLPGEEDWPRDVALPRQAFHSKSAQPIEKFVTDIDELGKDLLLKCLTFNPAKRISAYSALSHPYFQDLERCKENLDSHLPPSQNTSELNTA
Chain of CDK6/CCND1 (P24385 whole entry partner): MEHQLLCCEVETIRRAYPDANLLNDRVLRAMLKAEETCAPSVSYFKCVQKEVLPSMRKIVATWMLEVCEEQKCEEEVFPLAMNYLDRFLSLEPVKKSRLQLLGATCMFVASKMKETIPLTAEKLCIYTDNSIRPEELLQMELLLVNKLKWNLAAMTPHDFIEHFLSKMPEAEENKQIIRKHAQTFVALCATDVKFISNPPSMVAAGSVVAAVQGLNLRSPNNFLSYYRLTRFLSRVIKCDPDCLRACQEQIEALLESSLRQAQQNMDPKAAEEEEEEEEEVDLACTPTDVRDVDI

As for `CC1(O)C(=O)Nc2cc(C#Cc3nccc4cnc(Nc5ccc(S(C)(=O)=O)cc5)cc34)ccc21` (single isomer, unassigned) [Example 347, 3-hydroxy-3-methyl-6-((7-((4-(methylsulfonyl)phenyl)amino)-2,6-naphthyridin-1-yl)ethynyl)indolin-2-one], the pIC50 is greater than 7.60 at CDK2/CCNE1 (setting [1]), 6.60 to 7.60 on CDK1/CCNB1 (setting [2]), 6.60 to 7.60 at CDK4/CCND3 (setting [3]) and 6.60 to 7.60 on CDK6/CCND1 (setting [4]).

For `CC1(CO)C(=O)Nc2cc(C#Cc3nccc4cnc(Nc5ccc(S(C)(=O)=O)cc5)cc34)ccc21` (single isomer, unassigned) [Example 372, 3-(hydroxymethyl)-3-methyl-6-((7-((4-(methylsulfonyl)phenyl)amino)-2,6-naphthyridin-1-yl)ethynyl)indolin-2-one], the pIC50 on CDK2/CCNE1 (setting [1]) is greater than 7.60; on CDK1/CCNB1 (setting [2]), 6.60 to 7.60; on CDK4/CCND3 (setting [3]) it was 6.60 to 7.60; on CDK6/CCND1 (setting [4]), 6.60 to 7.60.

On to `CCC1(C)C(=O)Nc2cc(C#Cc3nccc4cnc(Nc5ccc(S(C)(=O)=O)cc5)cc34)ccc21` (single isomer, unassigned) [Example 388, 3-ethyl-3-methyl-6-((7-((4-(methylsulfonyl)phenyl)amino)-2,6-naphthyridin-1-yl)ethynyl)indolin-2-one], for which the pIC50 on CDK2/CCNE1 (setting [1]) was greater than 7.60; on CDK1/CCNB1 (setting [2]) it was 6.60 to 7.60; on CDK4/CCND3 (setting [5]) it was less than 6.60; at CDK6/CCND1 (setting [6]) it was less than 6.60.

Consider `CCS(=N)(=O)c1ccc(Nc2cc3c(C#Cc4ccc(=O)[nH]n4)nccc3cn2)cc1` (single isomer, unassigned) [Example 403, 6-((7-((4-(ethylsulfonimidoyl)phenyl)amino)-2,6-naphthyridin-1-yl)ethynyl)pyridazin-3(2H)-one], for which the pIC50 on CDK2/CCNE1 (setting [1]) was greater than 7.60; at CDK1/CCNB1 (setting [7]), less than 6.60; on CDK4/CCND3 (setting [5]), less than 6.60; at CDK6/CCND1 (setting [6]), less than 6.60.

On to `CS(=N)(=O)c1ccc(Nc2cc3c(C#Cc4ccc5oc(=O)[nH]c5c4)nccc3cn2)cc1` (single isomer, unassigned) [Example 483, 5-((7-((4-(S-methylsulfonimidoyl)phenyl)amino)-2,6-naphthyridin-1-yl)ethynyl)benzo[d]oxazol-2(3H)-one], for which the pIC50 on CDK2/CCNE1 (setting [1]) was greater than 7.60; on CDK1/CCNB1 (setting [2]), 6.60 to 7.60; at CDK4/CCND3 (setting [3]), 6.60 to 7.60; at CDK6/CCND1 (setting [4]), 6.60 to 7.60.

In the case of `CS(=N)(=O)c1ccc(Nc2cc3c(C#Cc4ccc(C#N)cc4)nccc3cn2)cc1` (single isomer, unassigned) [Example 511, 4-((7-((4-(S-methylsulfonimidoyl)phenyl)amino)-2,6-naphthyridin-1-yl)ethynyl)benzonitrile], the pIC50 on CDK2/CCNE1 (setting [8]) was 6.60 to 7.60; on CDK1/CCNB1 (setting [7]), less than 6.60; at CDK4/CCND3 (setting [5]), less than 6.60; at CDK6/CCND1 (setting [6]), less than 6.60.

In the case of `Cc1c(-c2nccc3cnc(Nc4ccc(S(C)(=N)=O)cc4)cc23)ccc2nn(C)cc12` (single isomer, unassigned) [Example 545, (4-((5-(2,4-dimethyl-2H-indazol-5-yl)-2,6-naphthyridin-3-yl)amino)phenyl)(imino)(methyl)-λ^6-sulfanone], the pIC50 at CDK2/CCNE1 (setting [1]) was greater than 7.60; at CDK1/CCNB1 (setting [7]), less than 6.60; on CDK4/CCND3 (setting [5]) it was less than 6.60; at CDK6/CCND1 (setting [4]), 6.60 to 7.60.

As to `CC(C)(O)Cn1cc2ccc(C#Cc3nccc4cnc(Nc5ccc(S(C)(=O)=O)cc5)cc34)cc2n1` (single isomer, unassigned) [Example 577, 2-Methyl-1-(6-((7-((4-(methylsulfonyl)phenyl)amino)-2,6-naphthyridin-1-yl)ethynyl)-2H-indazol-2-yl)propan-2-ol], the pIC50 on CDK2/CCNE1 (x = IC50 >250 nM, read-out: CDK2/CCNE IC50 (>250 nM column)) was less than 6.60; on CDK1/CCNB1 (setting [7]), less than 6.60; at CDK4/CCND3 (setting [5]), less than 6.60; at CDK6/CCND1 (setting [6]) it was less than 6.60.

Consider `CS(=O)(=O)c1ccc(Nc2cc3c(-c4ccc5c(cnn5CC(O)(C(F)(F)F)C(F)(F)F)c4Cl)nccc3cn2)cc1` (single isomer, unassigned) [Example 587, 2-((4-chloro-5-(7-((4-(methylsulfonyl)phenyl)amino)-2,6-naphthyridin-1-yl)-1H-indazol-1-yl)methyl)-1,1,1,3,3,3-hexafluoropropan-2-ol], for which the pIC50 at CDK2/CCNE1 (setting [1]) is greater than 7.60; on CDK1/CCNB1 (setting [7]), less than 6.60; on CDK4/CCND3 (setting [5]), less than 6.60; on CDK6/CCND1 (setting [6]), less than 6.60.

On to `CC1NCCc2cc(-c3nccc4cnc(Nc5ccc(S(C)(=O)=O)cc5)cc34)ccc21` (single isomer, unassigned) [Example 599, 5-(1-methyl-1,2,3,4-tetrahydroisoquinolin-6-yl)-N-(4-(methylsulfonyl)phenyl)-2,6-naphthyridin-3-amine], for which the pIC50 at CDK2/CCNE1 (setting [8]) is 6.60 to 7.60; at CDK1/CCNB1 (setting [7]), less than 6.60; on CDK4/CCND3 (setting [5]), less than 6.60; at CDK6/CCND1 (setting [6]), less than 6.60.

Regarding `Cc1c(-c2nccc3cnc(Nc4ccc(S(C)(=O)=O)cc4)cc23)ccc2c1cnn2CC(C)O` (single isomer, unassigned) [Example 614, 1-(4-methyl-5-(7-((4-(methylsulfonyl)phenyl)amino)-2,6-naphthyridin-1-yl)-1H-indazol-1-yl)propan-2-ol], the pIC50 was greater than 7.60 at CDK2/CCNE1 (setting [1]), less than 6.60 at CDK1/CCNB1 (setting [7]), 6.60 to 7.60 on CDK4/CCND3 (setting [3]) and 6.60 to 7.60 on CDK6/CCND1 (setting [4]).

Consider `CC1(O)C=C(c2nccc3cnc(Nc4ccc(S(C)(=O)=O)cc4)cc23)CCC1` (single isomer, unassigned) [Example 625, 1-methyl-3-(7-((4-(methylsulfonyl)phenyl)amino)-2,6-naphthyridin-1-yl)cyclohex-2-en-1-ol], for which the pIC50 is greater than 7.60 at CDK2/CCNE1 (setting [1]), 6.60 to 7.60 at CDK1/CCNB1 (setting [2]), less than 6.60 at CDK4/CCND3 (setting [5]) and 6.60 to 7.60 at CDK6/CCND1 (setting [4]).

Turning to `Cc1c(-c2nccc3cnc(Nc4ccc(S(C)(=O)=O)cc4)cc23)ccc2c1cnn2CC(C)(C)O` (single isomer, unassigned) [Example 674, 2-methyl-1-(4-methyl-5-(7-((4-(methylsulfonyl)phenyl)amino)-2,6-naphthyridin-1-yl)-1H-indazol-1-yl)propan-2-ol], the pIC50 was greater than 7.60 on CDK2/CCNE1 (setting [1]), 6.60 to 7.60 at CDK1/CCNB1 (setting [2]), 6.60 to 7.60 on CDK4/CCND3 (setting [3]) and 6.60 to 7.60 on CDK6/CCND1 (setting [4]).

In the case of `CS(=O)(=O)N1CCC(Nc2cc3c(N4CCCCC4)nccc3cn2)CC1` [Ex 27, N-(1-(methylsulfonyl)piperidin-4-yl)-5-(piperidin-1-yl)-2,6-naphthyridin-3-amine], the pIC50 was greater than 7.60 at CDK2/CCNE1 (setting [9]), 6.60 to 7.60 on CDK1/CCNB1 (setting [10]), greater than 7.60 at CDK4/CCND3 (setting [11]) and greater than 7.60 on CDK6/CCND1 (setting [12]).

For `CN1CCC(C2CCN(c3nccc4cnc(NC5CCN(S(C)(=O)=O)CC5)cc34)CC2)CC1` [Ex 28, 5-(1'-methyl-[4,4'-bipiperidin]-1-yl)-N-(1-(methylsulfonyl)piperidin-4-yl)-2,6-naphthyridin-3-amine], the pIC50 was 6.60 to 7.60 at CDK2/CCNE1 (setting [13]), less than 6.60 on CDK1/CCNB1 (setting [14]), 6.60 to 7.60 on CDK4/CCND3 (setting [15]) and greater than 7.60 on CDK6/CCND1 (setting [12]).

Turning to `CN1CCN(c2nccc3cnc(NC4CCN(S(C)(=O)=O)CC4)cc23)CC1` [Ex 29, 5-(4-methylpiperazin-1-yl)-N-(1-(methylsulfonyl)piperidin-4-yl)-2,6-naphthyridin-3-amine], the pIC50 on CDK2/CCNE1 (setting [13]) is 6.60 to 7.60; at CDK1/CCNB1 (setting [14]), less than 6.60; on CDK4/CCND3 (setting [11]) it was greater than 7.60; at CDK6/CCND1 (setting [12]), greater than 7.60.

Turning to `CC(C)N(C)c1nccc2cnc(NC3CCN(S(C)(=O)=O)CC3)cc12` [Ex 35, N1-isopropyl-N1-methyl-N7-(1-(methylsulfonyl)piperidin-4-yl)-2,6-naphthyridine-1,7-diamine], the pIC50 was greater than 7.60 at CDK2/CCNE1 (setting [9]); 6.60 to 7.60 on CDK1/CCNB1 (setting [10]); 6.60 to 7.60 at CDK4/CCND3 (setting [15]); 6.60 to 7.60 at CDK6/CCND1 (25-250 nM marked x, read-out: CDK6/CCND IC50 25-250 nM).
